The values below come from ChEMBL document CHEMBL5257033, “Pyrrolidinone and pyrrolidine derivatives: Evaluation as inhibitors of InhA and Mycobacterium tuberculosis” (Eur J Med Chem, 2016).

SMILES strings stand for the structures. Values after ≈ are worked out from the molar mass of the structure shown. Values joined by “and” are separate entries in the source; they are usually repeats but may differ in a detail not shown here. Identical values can stand only once. Active and inactive are the calls of the source. The rule behind the calls is not given here.

Series [1] deals with Mycolicibacterium smegmatis. The series can be described thus: Antimycobacterial activity against Mycobacterium smegmatis MC2 155 assessed as inhibition of bacterial growth at 2 uM incubated for 16 hrs relative to control. It is filed as functional.
For series [2], the system named is Mycolicibacterium smegmatis. Description: Antimycobacterial activity against Mycobacterium smegmatis MC2 155 assessed as inhibition of bacterial growth at 5 uM incubated for 16 hrs relative to control. It is filed as functional.
Series [3] relates to Mycolicibacterium smegmatis. Description: Antimycobacterial activity against Mycobacterium smegmatis MC2 155 assessed as inhibition of bacterial growth at 10 uM incubated for 16 hrs relative to control. It is filed as functional.
For series [4], the system named is Mycolicibacterium smegmatis. Description: Disruption of trans-membrane electrical charge gradient of proton motive force in Mycobacterium smegmatis at 30 uM by DiSC3(5)-probe based fluorescence assay. It is filed as functional, organism-based.
In series [5] the target is T1, Enoyl-[acyl-carrier-protein] reductase [NADH] (Mycobacterium tuberculosis) (UniProt P9WGR1).
T1 sequence (whole entry): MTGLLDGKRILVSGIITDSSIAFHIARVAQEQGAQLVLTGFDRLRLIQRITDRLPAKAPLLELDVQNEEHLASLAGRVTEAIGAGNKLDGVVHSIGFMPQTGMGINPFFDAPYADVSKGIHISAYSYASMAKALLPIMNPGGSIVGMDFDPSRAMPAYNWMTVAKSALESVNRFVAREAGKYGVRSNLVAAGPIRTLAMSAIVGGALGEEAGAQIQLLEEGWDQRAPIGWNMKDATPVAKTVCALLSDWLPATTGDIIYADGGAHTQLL
The series can be described thus: Inhibition of Mycobacterium tuberculosis InhA at 5 uM using trans-2-dodecenoyl-Coenzyme A as substrate in presence of NADH relative to control.

Series [6] deals with Mycobacterium tuberculosis. Description: Antimycobacterial activity against wild type Mycobacterium tuberculosis H37Rv assessed as bacterial growth inhibition measured after 21 days by microbroth dilution method. It is filed as functional. The settings on record: for MIC: 504 h, time 21 day. (In broth dilution the organism is exposed to a series of concentrations in liquid medium.)

In series [7] the test system is MRC5. Description: (§1) Cytotoxicity against human MRC5 cells assessed as reduction in cell number measured after 72 hrs by Hoechst 33342 staining based microscopic analysis. Conditions: mrc5, 72 h. It is filed as toxicity.
Series [8] concerns Mycobacterium tuberculosis. Description: Antimycobacterial activity against 14C acetate-labeled Mycobacterium tuberculosis H37Ra assessed as reduction in trehalose dimycolates level at 3.7 uM incubated for 24 hrs by autoradiography based TLC analysis. It is filed as functional, organism-based.
Series [9] deals with Mycobacterium tuberculosis. The series can be described thus: Antimycobacterial activity against 14C acetate-labeled Mycobacterium tuberculosis H37Ra assessed as reduction in trehalose monomycolates level at 3.7 uM incubated for 24 hrs by autoradiography based TLC analysis. It is filed as functional, organism-based.
For series [10], the system named is Mycolicibacterium smegmatis. Description: Antimycobacterial activity against Mycobacterium smegmatis MC2 155 assessed as inhibition of bacterial growth at 6.2 uM incubated for 16 hrs relative to control. It is filed as functional.
Series [11] has as its system Mycolicibacterium smegmatis. The series can be described thus: Antimycobacterial activity against Mycobacterium smegmatis MC2 155 assessed as reduction in trehalose monomycolates level at 6.2 uM incubated for 16 hrs by TLC analysis. It is filed as functional, organism-based.
In series [12] the test system is Mycolicibacterium smegmatis. Description: Antimycobacterial activity against Mycobacterium smegmatis MC2 155 assessed as reduction in trehalose dimycolates level at 6.2 uM incubated for 16 hrs by TLC analysis. It is filed as functional, organism-based.
In series [13] the test system is Mycolicibacterium smegmatis. The series can be described thus: Antimycobacterial activity against Mycobacterium smegmatis MC2 155 assessed as reduction in cell wall bound mycolic acid methyl esters at 6.2 uM incubated for 16 hrs by TLC analysis. It is filed as functional, organism-based.
Series [14] has as its system Mycolicibacterium smegmatis. The series can be described thus: Antimycobacterial activity against Mycobacterium smegmatis MC2 155 assessed as reduction in phosphatidylethanolamine synthesis at 6.2 uM incubated for 16 hrs by TLC analysis. It is filed as functional, organism-based.
The subject of series [15] is Mycolicibacterium smegmatis. The series can be described thus: Disruption of trans-membrane electrical charge gradient of proton motive force in Mycobacterium smegmatis by DiSC3(5)-probe based fluorescence assay. It is filed as functional, organism-based.
Series [16] can be described thus: as §1. It is filed as toxicity. Conditions: MRC5 cells, read-out: LD50.
For series [17], the system named is Mycobacterium tuberculosis. Description: Antimycobacterial activity against 14C acetate-labeled Mycobacterium tuberculosis H37Ra assessed as inhibition of bacterial growth at 42 uM incubated for 24 hrs by autoradiography based TLC analysis relative to control. It is filed as functional.
Series [18] relates to Mycobacterium tuberculosis. Description: Antimycobacterial activity against 14C acetate-labeled Mycobacterium tuberculosis H37Ra assessed as inhibition of bacterial growth at 84 uM incubated for 24 hrs by autoradiography based TLC analysis relative to control. It is filed as functional. The settings on record: AT84.
Series [19] has as its system Mycobacterium tuberculosis. Description: Antimycobacterial activity against 14C acetate-labeled Mycobacterium tuberculosis H37Ra assessed as reduction in trehalose dimycolates level at 42 to 84 uM incubated for 24 hrs by autoradiography based TLC analysis. It is filed as functional, organism-based. The settings on record: dose 42-84 µM.
In series [20] the test system is Mycobacterium tuberculosis. The series can be described thus: Antimycobacterial activity against 14C acetate-labeled Mycobacterium tuberculosis H37Ra assessed as reduction in trehalose monomycolates level at 42 to 84 uM incubated for 24 hrs by autoradiography based TLC analysis. It is filed as functional, organism-based. The settings on record: dose 42-84 µM.
The test system of series [21] is Mycobacterium tuberculosis. Description: Antimycobacterial activity against 14C acetate-labeled Mycobacterium tuberculosis H37Ra assessed as reduction in cell wall bound mycolic acid level at 42 to 84 uM incubated for 24 hrs by autoradiography based TLC analysis. It is filed as functional, organism-based. Conditions: dose 42-84 µM.
In series [22] the test system is Mycolicibacterium smegmatis. Description: Antimycobacterial activity against Mycobacterium smegmatis MC2 155 assessed as inhibition of bacterial growth at 16.8 uM incubated for 16 hrs relative to control. It is filed as functional.
Series [23] deals with Mycolicibacterium smegmatis. Description: Antimycobacterial activity against Mycobacterium smegmatis MC2 155 assessed as reduction in trehalose monomycolates level at 16.8 uM incubated for 16 hrs by TLC analysis. It is filed as functional, organism-based.
The test system of series [24] is Mycolicibacterium smegmatis. Description: Antimycobacterial activity against Mycobacterium smegmatis MC2 155 assessed as reduction in cell wall bound mycolic acid methyl esters at 16.8 uM incubated for 16 hrs by TLC analysis. It is filed as functional, organism-based.
Series [25] has as its system Mycolicibacterium smegmatis. The series can be described thus: Antimycobacterial activity against Mycobacterium smegmatis MC2 155 assessed as reduction in trehalose dimycolates level at 16.8 uM incubated for 16 hrs by TLC analysis. It is filed as functional, organism-based.
Series [26] deals with Mycolicibacterium smegmatis. The series can be described thus: Antimycobacterial activity against Mycobacterium smegmatis MC2 155 assessed as reduction in phosphatidylethanolamine synthesis at 16.8 uM incubated for 16 hrs by TLC analysis. It is filed as functional, organism-based.
The subject of series [27] is Mycolicibacterium smegmatis. Description: Disruption of trans-membrane electrical charge gradient of proton motive force in Mycobacterium smegmatis up to 280 uM by DiSC3(5)-probe based fluorescence assay. It is filed as functional, organism-based.
For series [28], the system named is Escherichia coli. Description: Antibacterial activity against Escherichia coli BL21(DE3) assessed as inhibition of bacterial growth incubated for 4 hrs. It is filed as functional, organism-based. The settings on record: dose 35-140 µM.
For series [29], the system named is Escherichia coli. Description: Antibacterial activity against Escherichia coli BL21(DE3) assessed as reduction in phosphatidylethanolamine incubated for 4 hrs by TLC analysis. It is filed as functional, organism-based.
Series [30] addresses T1, Enoyl-[acyl-carrier-protein] reductase [NADH] (Mycobacterium tuberculosis). The series can be described thus: Inhibition of Mycobacterium tuberculosis InhA at 50 uM using trans-2-dodecenoyl-coenzyme A as substrate in presence of NADH.

Broadly, the inhibition is the share of the control response that was lost under treatment. Regarding `N#CC(C#N)=NNc1cccc(Cl)c1` [CARBONYL CYANIDE M-CHLOROPHENYLHYDRAZONE], in series [1], the inhibition at 2 µM came out at 0.2%. Moreover, in series [2], the inhibition at 5 µM amounted to 9%. In series [3], the inhibition at 10 µM came to 66%. In addition, the result in [4] was Active.

One may read the MIC as the lowest concentration found to suppress growth. For the molecule `O=C(c1ccccc1)N1CCC(C2c3ccccc3-c3ccccc32)C1` (stereo unspecified), the inhibition in series [5] was found to be 50%. Moreover, in [6], the MIC is above 16 µg/mL.

As for `CCCCCCCCC(=O)N1CCC(C2c3ccccc3-c3ccccc32)C1=O` (stereo unspecified), the MIC in series [6] is 4 µg/mL and 10.3 µM.

For `O=C1C(C2c3ccccc3-c3ccccc32)CCN1Cc1ccc(Cl)cc1` (stereo unspecified), the minimum inhibitory concentration (MIC) in series [6] is 69 µM and 25 µg/mL. Moreover, the Activity entry in series [7] is listed as “Non-Toxic”.

As for `NNC(=O)c1ccncc1` [ISONIAZID], the MIC in [6] worked out at 0.025 µg/mL (≈ 0.182 µM). Besides, the result in series [8] and in [9] was Active.

In the case of `CCCCCCCCCN1CCC(C2c3ccccc3-c3ccccc32)C1` (stereo unspecified), in series [6], the MIC was 1 µg/mL and 2.8 µM.

For `Clc1cc(Cl)cc(N2CCC(C3c4ccccc4-c4ccccc43)C2)c1` (stereo unspecified), the MIC in series [6] is 66 µM and 25 µg/mL. Besides, the Activity result in [7] is on record as “Non-Toxic”.

Turning to `O=C(Nc1ccc(F)c(F)c1F)NC12CC3CC(CC(C3)C1)C2`, the inhibition at 6.2 µM in series [10] was 60%. Further, the outcome in series [11] and in series [15] was inactive. Also, the result in series [12], in series [13] and in series [14] was Active.

For `O=C1C(C2c3ccccc3-c3ccccc32)CCN1c1ccc(F)cc1` (stereo unspecified), in series [6], the MIC was 14.6 µM and 5 µg/mL.

In the case of `O=C1C(C2c3ccccc3-c3ccccc32)CCN1CCc1ccccc1` (stereo unspecified), the MIC in series [6] was 1 µg/mL and 2.8 µM.

With `CCCCCCCCCN1CCC(C2c3ccccc3-c3ccccc32)C1=O` (stereo unspecified), the MIC in series [6] was 5 µg/mL and 13.3 µM. In series [7], the Activity entry is on record as “Non-Toxic”.

Consider `Oc1cc(Cl)ccc1Oc1ccc(Cl)cc1Cl` [TRICLOSAN], for which the minimal inhibitory concentration (MIC) in [6] is 34.5 µM and 10 µg/mL.

Consider `c1ccc(CN2CCC(C3c4ccccc4-c4ccccc43)C2)cc1` (stereo unspecified), for which the MIC in [6] was 5 µg/mL and 15.4 µM.

As to `CCCCCCCCC(=O)N1CCC(C2c3ccccc3-c3ccccc32)C1` (stereo unspecified), in series [6], the MIC is 21.3 µM and 8 µg/mL.

On to `Clc1ccc(CN2CCC(C3c4ccccc4-c4ccccc43)C2)cc1` (stereo unspecified), for which the MIC in series [6] is 1.4 µM and 0.5 µg/mL. For the same molecule, the CC50 at 72 h in series [16] was determined as 35 µM. Further, the inhibition at 42 µM in [17] is 43%. For the same molecule, the inhibition at 84 µM in series [18] was determined as 48%. Also, the outcome in series [19], in series [21], in series [24], in [25], in series [26] and in series [29] was Active. Also, the outcome in [20], in [23] and in [27] was inactive. In series [22], the inhibition at 16.8 µM turned out to be 57%. Also, the inhibition result in [28] was “Dose-Dependent Effect”.

On to `O=C(c1ccccc1)N1CCC(C2c3ccccc3-c3ccccc32)C1=O` (stereo unspecified), for which the minimal inhibitory concentration (MIC) in series [6] is > 45 µM and > 16 µg/mL.

As for `O=C1C(C2c3ccccc3-c3ccccc32)CCN1Cc1ccccc1` (stereo unspecified), the MIC in series [6] is > 74 µM and > 25 µg/mL.

Regarding `Fc1ccc(N2CCC(C3c4ccccc4-c4ccccc43)C2)cc1` (stereo unspecified), the MIC in series [6] was 15.2 µM and 5 µg/mL.

Take `O=C(c1ccc2[nH]ccc2c1)N1CCN(C2c3ccccc3-c3ccccc32)CC1`: the MIC in series [6] is > 16 µg/mL and > 40.7 µM.

Turning to `c1ccc(CCN2CCC(C3c4ccccc4-c4ccccc43)C2)cc1` (stereo unspecified), in series [6], the MIC was 14.7 µM and 5 µg/mL. Besides, the CC50 at 72 h in [16] came out at 18.9 µM.

Consider `O=C1C(C2c3ccccc3-c3ccccc32)CCN1c1cc(Cl)cc(Cl)c1` (stereo unspecified), for which the result in [6] (time 21.0 day) was inactive. In addition, the inhibition entry in series [30] is “inactive”.
